“Also recorded” adds a separate entry of the source.

We go through five molecules from PMC10716148 (Scientific Reports, 2023).

Data set [1] relates to B16F10 melanoma cells. Description: Cytotoxicity assay (MTT) in B16F10 cells. In kind it is cell-based, Murine. The following applies: for Cytotoxicity: B16F10 melanoma cells, 72 h. Here is the method:
(§1) Murine melanoma B16F10 cells (obtained from DS Pharma Biomedical, Japan) were cultivated in Dulbecco's Modified Eagle Medium (DMEM), a liquid medium supplemented with 10% fetal bovine serum (FBS) and 1% penicillin/streptomycin. The cells were incubated at a temperature of 37 °C within a controlled humidified environment containing 5% CO2. To facilitate subculture, the cells were detached from the culture flask using trypsin solution. Subsequently, the cells were subjected to staining with trypan blue solution and quantified using a hemocytometer for further analysis. The final concentration of DMSO was 0.1% for all experiments.
Cytotoxicity was assessed through the utilization of the MTT assay. The cell culture was initiated in 24-well plates, with a seeding density of 5 × 10^4 cells per well. After treatment with samples for 72 h, 10 µL of MTT solution (5 mg/mL in PBS) were added to each well and incubated for additional 3 h. Then, supernatant was removed and DMSO (250 µL) was added to dissolve the formed formazan crystals. The absorbance was measured at 570 nm using a microplate reader. Cells treated solely with DMSO served as the control. All experiments were conducted in triplicate. The percentage of cell viability was determined using the following calculation: %Cellviability=Abstreated cells-Absblank of treated cells/Abscontrol-Absblank of control×100

A short description of data set [2]: Accelerated stability test, chemical stability by HPLC. The class given is physicochemical. The following applies: for remaining at 720 h: cosmetic formulation F1, after 30 days (1 month) at 45 °C.
Data set [3] relates to B16F10 melanoma cells. Nature of the data set: Anti-melanogenic assay (melanin content) in B16F10 cells. In kind it is cell-based, Murine. The following applies: mean ± SD (n = 3). How it is done:
as §1
Murine melanoma B16F10 cells were gently rinsed with phosphate-buffered saline (PBS) and detached from the cell tissue culture dish using trypsin. The cells were subsequently seeded in 24-well culture plates at a density of 5 × 10^4 cells per well and allowed to incubate for 24 h before being subjected to treatment with the experimental samples. Arbutin was used as a positive control. Following the treatment, the cells were further incubated for an additional 72 h, and the absorbance was measured at 510 nm using a microplate reader. Melanin production was expressed as a percentage relative to the control cells treated with DMSO. All experiments were conducted in triplicate. The IC50 value was calculated. The percentage of total melanin content was determined using the following equation: %Totalmelanincontent=Abstreated cells-Absblank of treated cells/Abscontrol-Absblank of control×100

Another data set relates to melanocytes. Further details: method as in Tang et al. [15]. The following applies: ref Tang et al. [15]; cited from earlier work.
[4] abbreviates: Mus musculus, B16-F10, 72 h treatment.

In general, amount remaining refers to what is left of the initial amount, in per cent. A higher amount remaining goes with less turnover. In general, IC50 refers to the concentration that inhibits the measured activity by half. Higher therefore signals lower potency. Molecule `OC[C@H]1O[C@@H](Oc2ccc(O)cc2)[C@H](O)[C@@H](O)[C@@H]1O` [Arbutin] showed a Cytotoxicity in the data set with B16F10 melanoma cells [1] above 1000 µM. Further, the “Content in formulation F1” value is 0.1991 ± 0.0004 %w/w in data set [2] (Day 1, HPLC) and 0.1940 ± 0.0057 %w/w in data set [2] (Day 30, 45 °C, HPLC). The “%Remaining in formulation F1” value in data set [2] (after 30 days (1 month) at 45 °C) was found to be 97.44%. Moreover, the share remaining at 720 h in data set [2] is above 90%. The same molecule came in with an IC50 with B16F10 melanoma cells [3] (setting [4]) of 807.6 ± 2.9 µM.

On to `C[C@@H]1O[C@@H](Oc2cc(O)c3c(=O)c(O)c(-c4ccc(O)cc4)oc3c2)[C@H](O)[C@H](O)[C@H]1O` [Compound 3, kaempferol-7-O-α-L-rhamnopyranoside], for which the “Cytotoxicity (in words)” value in the data set on B16F10 melanoma cells [1] (B16F10 cells, b13: 72 h, concentrations as high as 1000 µM) was “absence of discernible cytotoxicity; also recorded: no significant toxicity was observed”. In the data set with B16F10 melanoma cells [1], this molecule came in with a Cytotoxicity above 1000 µM. Moreover, the “Content in formulation F1” value in data set [2] (Day 1, HPLC) is on record as 0.0050 ± 0.0005 %w/w; in data set [2] (Day 30, 45 °C, HPLC) it was 0.0048 ± 0.0003 %w/w. In data set [2], this molecule returned a fraction remaining at 720 h above 90%. This molecule also displayed an IC50 with B16F10 melanoma cells [3] (setting [4]) of 23 ± 1.3 µM.

`CC1OC(Oc2cc(O)c3c(=O)c(OC4OC(CO)C(O)C(O)C4O)c(-c4ccc(O)cc4)oc3c2)C(O)C(O)C1O` [Compound 4, kaempferol-3-O-β-D-glucopyranosyl-7-O-α-L-rhamnopyranoside] had a Cytotoxicity in the data set with B16F10 melanoma cells [1] above 1000 µM. In the data set on B16F10 melanoma cells [3] (setting [4]), this molecule registered a half-maximal inhibitory concentration (IC50) above 200 µM.

For the molecule Quercetin-3-O-rhamnoside [Compound 1], the IC50 in the data set with B16F10 melanoma cells [3] (72 h treatment) is 135 ± 2.1 µM.

For `O=c1c(O)c(-c2ccc(O)cc2)oc2cc(O)cc(O)c12` [kaempferol], in the data set with melanocytes, the “Effect on melanin production and melanocyte growth” value was “induce melanin production and melanocyte growth”.
